In patent US6461997B1, “Triazole sulfones having herbicidal activity” (Monsanto Technology LLC, priority 1999, dated 2002):

Tests used:
[1] = tested on: SORHA (johnsongrass (seedling)); experiment: Pre-plant incorporated (PPI) herbicidal activity, warm season; type: in vivo, Sorghum halepense; details: for Percent inhibition SORHA / inhibition at 10 g/ha / inhibition at 30 g/ha / inhibition at 100 g/ha / inhibition at 300 g/ha / inhibition at 900 g/ha: PPI application; for PPI activity GR80, SORHA: pre-plant incorporated, lowest tested rate with 80% or greater inhibition, about 14 days; for inhibition at 10 g/ha / inhibition at 30 g/ha / inhibition at 100 g/ha / inhibition at 300 g/ha / inhibition at 900 g/ha: Sorghum halepense, read-out: Percent inhibition SORHA
Description: (§1) In another set of tests, the pre-plant incorporated (PPI) activity of compounds of this invention was evaluated on the same species as for the pre-emergence tests described above. In the PPI tests the following procedure, designed to simulate PPI application, was used.
(§2) A pre-prepared topsoil mixture (described above) was placed in a pot and compacted to a depth of 1.0 to 1.25 cm from the top of the pot. Seeds of each of several monocotyledonous and dicotyledonous annual plant species were placed on top of the soil. A sufficient quantity of soil to cover the seeds and level fill the pot was weighed into an open container. A known amount of the test compound was dissolved or suspended in an organic solvent and applied by spraying to this cover soil. The cover soil was thoroughly mixed to distribute the test compound throughout the cover soil, and was then applied as a cover layer over the seeds. Untreated soil was used as a cover layer for control pots. After treatment the plants were placed in a greenhouse where they received 0.64 cm of overhead irrigation. All subsequent watering consisted of a light overhead mist and/or subirrigation as needed for germination and growth. Tables 9 and 10 below relate to warm season plant species which were placed after pre-emergence treatment in a greenhouse with a 30/21° C. day/night temperature regime. Tables 11 and 12 below relates to cool season plant species placed after pre-emergence treatment in a greenhouse or growth chamber with an 18/13° C. day/night temperature regime. Only the compounds of Examples 1, 6, 8, 11, 13 and 15-20 were included in PPI tests.
(§3) Approximately 14 days after planting and treating, the plants were observed and herbicidal efficacy recorded as percent inhibition by comparison with untreated plants.

ALOMY (blackgrass) = experiment: Pre-emergence herbicidal activity, cool season; type: in vivo, Alopecurus myosuroides; details: GR80 = lowest tested rate (300, 100, 30, 10 g/ha) with 80% or greater inhibition; approx. 14 days after treating; 18/13° C.
Procedure, shortened: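 Activity is expressed as the rate giving 80% inhibition, with 300, 100, 30 and 10 g/ha typically tested. An asterisk marks activity short of 80% at the top rate. Warm-season grasses were held at 30/21 °C; cool-season blackgrass and wild buckwheat at 18/13 °C; scoring at about 14 days.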

DIGSA (large crabgrass) = experiment: Pre-plant incorporated (PPI) herbicidal activity, warm season; type: in vivo, Digitaria sanguinalis; details: for Percent inhibition DIGSA / inhibition at 10 g/ha / inhibition at 30 g/ha / inhibition at 100 g/ha / inhibition at 300 g/ha / inhibition at 900 g/ha: PPI application; for PPI activity GR80, DIGSA: pre-plant incorporated, lowest tested rate with 80% or greater inhibition, about 14 days; for inhibition at 10 g/ha / inhibition at 30 g/ha / inhibition at 100 g/ha / inhibition at 300 g/ha / inhibition at 900 g/ha: Digitaria sanguinalis, read-out: Percent inhibition DIGSA
Description: as §1, §2, §3

[2] = tested on: VERPE (creeping speedwell); experiment: Pre-emergence herbicidal activity, cool season; type: in vivo, Veronica persicaria; details: lowest tested rate with 80% or greater inhibition; rates 300, 100, 30, 10 g/ha; about 14 days
Procedure, shortened: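 GR80 values derive from percent inhibition relative to untreated plants, read roughly 14 days after sowing and pre-emergence soil-surface treatment (compound in 50:50 acetone/water; rates typically 10, 30, 100, 300 g/ha). Warm-season weeds grew at 30/21° C day/night, cool-season ones at 18/13° C; an asterisk marks activity without reaching 80% at the highest rate.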

LOLMG (annual ryegrass) = experiment: Pre-plant incorporated (PPI) herbicidal activity, cool season; type: in vivo, Lolium multiflorum; details: for PPI activity GR80, LOLMG: pre-plant incorporated, lowest tested rate with 80% or greater inhibition, about 14 days; for Percent inhibition LOLMG / inhibition at 10 g/ha / inhibition at 30 g/ha / inhibition at 100 g/ha / inhibition at 300 g/ha / inhibition at 900 g/ha: weed, PPI application; for inhibition at 10 g/ha / inhibition at 30 g/ha / inhibition at 100 g/ha / inhibition at 300 g/ha / inhibition at 900 g/ha: Lolium multiflorum, read-out: Percent inhibition LOLMG
Description: as §1, §2, §3

soybean (GLYMX) = experiment: Selectivity test, PPI, warm season crop; type: in vivo, Glycine max; details: PPI application; for inhibition at 10 g/ha / inhibition at 30 g/ha / inhibition at 100 g/ha / inhibition at 300 g/ha / inhibition at 900 g/ha: Glycine max, read-out: Percent inhibition GLYMX
Description: as §2, §3
Additional pre-emergence and PPI tests were conducted by the procedures described above, on warm and cool season weed species in the presence of crop species, to assess herbicidal selectivity. Crop species included in warm season tests were corn (Zea mays, ZEAMX), rice (Oryza sativa, ORYSA) and soybean (Glycine max, GLYMX). Crop species included in cool season tests were wheat (Triticum aestivum, TRZAW), barley (Hordeunm vulgare, HORVX) and oilseed rape (Brassica napus, BRSNS).
Tables 15 and 16 relate to pre-emergence and PPI tests respectively on warm season species. Table 17 relates to pre-emergence tests on cool season species.

## CCN(CC)C(=O)n1cnc(S(=O)(=O)C(F)(F)C(F)F)n1 [Example 16]
[1]; 10 g/ha
  Percent inhibition SORHA: 0%
[1]; 30 g/ha
  Percent inhibition SORHA: 70%
[1]; 100 g/ha
  Percent inhibition SORHA: 100%
[1]; 300 g/ha
  Percent inhibition SORHA: 100%
[1]; 900 g/ha
  Percent inhibition SORHA: 100%
[1]
  PPI activity GR80, SORHA: 10 g/ha
ALOMY (blackgrass)
  Pre-emergence activity (GR80) ALOMY: 100 g/ha
DIGSA (large crabgrass); 10 g/ha
  Percent inhibition DIGSA: 70%
DIGSA (large crabgrass); 30 g/ha
  Percent inhibition DIGSA: 100%
DIGSA (large crabgrass); 100 g/ha
  Percent inhibition DIGSA: 90%
DIGSA (large crabgrass); 300 g/ha
  Percent inhibition DIGSA: 100%
DIGSA (large crabgrass); 900 g/ha
  Percent inhibition DIGSA: 100%
DIGSA (large crabgrass)
  PPI activity GR80, DIGSA: 10 g/ha
[2]
  Pre-emergence activity GR80, VERPE: 100 g/ha
LOLMG (annual ryegrass)
  PPI activity GR80, LOLMG: 300 g/ha
LOLMG (annual ryegrass); 10 g/ha
  Percent inhibition LOLMG: 45%
LOLMG (annual ryegrass); 30 g/ha
  Percent inhibition LOLMG: 35%
LOLMG (annual ryegrass); 100 g/ha
  Percent inhibition LOLMG: 90%
LOLMG (annual ryegrass); 300 g/ha
  Percent inhibition LOLMG: 95%
LOLMG (annual ryegrass); 900 g/ha
  Percent inhibition LOLMG: 100%
Soybean (GLYMX); 10 g/ha
  Percent inhibition GLYMX: 0%
Soybean (GLYMX); 30 g/ha
  Percent inhibition GLYMX: 0%
Soybean (GLYMX); 100 g/ha
  Percent inhibition GLYMX: 10%
Soybean (GLYMX); 300 g/ha
  Percent inhibition GLYMX: 10%
Soybean (GLYMX); 900 g/ha
  Percent inhibition GLYMX: 80%

## C=CCC(F)(F)S(=O)(=O)c1ncn(C(=O)N(CC)CC)n1 [Example 17, 1-(N,N-diethylcarbamoyl)-3-[(1,1-difluoro-3-butenyl)sulfonyl]-1,2,4-triazole]
[1]; 10 g/ha
  inhibition at 10 g/ha: 95%
[1]; 30 g/ha
  inhibition at 30 g/ha: 60%
[1]; 100 g/ha
  inhibition at 100 g/ha: 100%
[1]; 300 g/ha
  inhibition at 300 g/ha: 100%
[1]; 900 g/ha
  inhibition at 900 g/ha: 100%
[1]
  PPI activity GR80, SORHA: 10 g/ha
ALOMY (blackgrass)
  Pre-emergence activity (GR80) ALOMY: 100 g/ha
DIGSA (large crabgrass); 10 g/ha
  inhibition at 10 g/ha: 60%
DIGSA (large crabgrass); 30 g/ha
  inhibition at 30 g/ha: 80%
DIGSA (large crabgrass); 100 g/ha
  inhibition at 100 g/ha: 80%
DIGSA (large crabgrass); 300 g/ha
  inhibition at 300 g/ha: 80%
DIGSA (large crabgrass); 900 g/ha
  inhibition at 900 g/ha: 100%
DIGSA (large crabgrass)
  PPI activity GR80, DIGSA: 30 g/ha
[2]
  Pre-emergence activity GR80, VERPE: 100 g/ha
LOLMG (annual ryegrass); 10 g/ha
  inhibition at 10 g/ha: 45%
LOLMG (annual ryegrass); 30 g/ha
  inhibition at 30 g/ha: 60%
LOLMG (annual ryegrass); 100 g/ha
  inhibition at 100 g/ha: 95%
LOLMG (annual ryegrass); 300 g/ha
  inhibition at 300 g/ha: 100%
LOLMG (annual ryegrass); 900 g/ha
  inhibition at 900 g/ha: 100%
LOLMG (annual ryegrass)
  PPI activity GR80, LOLMG: 100 g/ha
Soybean (GLYMX); 10 g/ha
  inhibition at 10 g/ha: 0%
Soybean (GLYMX); 30 g/ha
  inhibition at 30 g/ha: 0%
Soybean (GLYMX); 100 g/ha
  inhibition at 100 g/ha: 0%
Soybean (GLYMX); 300 g/ha
  inhibition at 300 g/ha: 20%
Soybean (GLYMX); 900 g/ha
  inhibition at 900 g/ha: 80%

## C=C(C)CC(F)(F)S(=O)(=O)c1ncn(C(=O)N(CC)CC)n1 [Example 18]
[1]; 10 g/ha
  inhibition at 10 g/ha: 100%
[1]; 30 g/ha
  inhibition at 30 g/ha: 100%
[1]; 100 g/ha
  inhibition at 100 g/ha: 100%
[1]; 300 g/ha
  inhibition at 300 g/ha: 100%
[1]; 900 g/ha
  inhibition at 900 g/ha: 100%
[1]
  PPI activity GR80, SORHA: 300 g/ha
ALOMY (blackgrass)
  Pre-emergence activity (GR80) ALOMY: 300 g/ha
DIGSA (large crabgrass); 10 g/ha
  inhibition at 10 g/ha: 20%
DIGSA (large crabgrass); 30 g/ha
  inhibition at 30 g/ha: 80%
DIGSA (large crabgrass); 100 g/ha
  inhibition at 100 g/ha: 80%
DIGSA (large crabgrass); 300 g/ha
  inhibition at 300 g/ha: 100%
DIGSA (large crabgrass); 900 g/ha
  inhibition at 900 g/ha: 100%
DIGSA (large crabgrass)
  PPI activity GR80, DIGSA: 30 g/ha
[2]
  Pre-emergence activity GR80, VERPE: 300 g/ha
LOLMG (annual ryegrass); 10 g/ha
  inhibition at 10 g/ha: 20%
LOLMG (annual ryegrass); 30 g/ha
  inhibition at 30 g/ha: 60%
LOLMG (annual ryegrass); 100 g/ha
  inhibition at 100 g/ha: 50%
LOLMG (annual ryegrass); 300 g/ha
  inhibition at 300 g/ha: 100%
LOLMG (annual ryegrass); 900 g/ha
  inhibition at 900 g/ha: 100%
LOLMG (annual ryegrass)
  PPI activity GR80, LOLMG: 100 g/ha
Soybean (GLYMX); 10 g/ha
  inhibition at 10 g/ha: 0%
Soybean (GLYMX); 30 g/ha
  inhibition at 30 g/ha: 0%
Soybean (GLYMX); 100 g/ha
  inhibition at 100 g/ha: 0%
Soybean (GLYMX); 300 g/ha
  inhibition at 300 g/ha: 0%
Soybean (GLYMX); 900 g/ha
  inhibition at 900 g/ha: 50%
